From patent US4367339A, “Substituted N-nitroaniline compounds and inorganic and organic salts thereof useful for enhancing auxiliary branching, canopy flowering and crop yield of plant and as lodging inhibitors therefor” (priority 1980, dated 1983)
Structures can show the parent of a compound that is named as a salt.

Key:
[1] = tested on: barley (Hordeum vulgare); assay: Dwarfing of barley (plant height, greenhouse, foliar spray); type: in vivo; settings: three weeks after spraying
Description: (§1) In the following tests, test compounds are dissolved or dispersed in acetone-water (1:1) mixtures at the final concentration corresponding to the kg/ha rates indicated in the table below. The solution also contains 0.25% v/v colloidal BIOFILM® (a product of Colloidal Products Corp.) which is a mixture of alkyl aryl polyethoxyethanol, free and combined fatty acids, glycol ethers, dialkylbenzene carboxylate and 2-propanol.
(§2) The plant species used in these tests are barley (Hordeum vulgare), (Mexico) and soybean (Glycine max)Adelphia.
(§3) The solution or dispersion of the compound under test is sprayed at a rate of 747 l/ha with a moving nozzle along an overhead stationary track. The spray nozzle moves at a constant speed over the plants.
(§4) The plants are grown in plastic pots, and are well established at the time of treatment. The seedlings of barley are 10 to 20 cm in height, while the seedlings of soybeans are at the second to third trifoliate stage. Plants are watered prior to treatment and then sprayed to provide the kg/ha rate of test compound desired. After spraying the plants are placed on greenhouse benches and watered and fertilized in accordance with normal greenhouse procedures.
(§5) Three weeks after spraying the plants are measured and harvested. Harvesting is done at the boot stage. All treatments are replicated six times and comparisons are made against untreated controls. Data obtained are reported in Table VI below as percent reduction in plant height over untreated controls.

[2] = tested on: soybeans (Glycine max) Adelphia variety; assay: Increasing axillary branching and improving the canopy of broad leaf plants (soybeans); type: in vivo, soybean (Glycine max); settings: three weeks after treatment
Excerpt: In these tests seedling soybean plants approximately three weeks old, and grown in plastic pots to the 2nd to 3rd trifoliate stage, are sprayed with solutions or dispersions of test compound prepared as described in Example 7 above. The same spraying apparatus, described in Example 7 above, is used and after spraying the plants are placed on greenhouse benches and watered and fertilized. Three weeks after treatment the plants are examined to determine what effect the application of test compound has had on the axillary branching and canopy development of the treated plants.
Increased axillary branching and improved canopy are biological responses which are highly advantageous in the growing of ornamental plants. These responses also have advantage in many crops since increased branching may result in the greater production of fruit, while improved canopy tends to shade and suppress the growth of undesirable weeds that compete with the crops for sunlight, water and plant nutrients. Data obtained are reported in table VII below where axillary branching and canopy are reported as percent increase over untreated controls.

[3] = tested on: soybeans (Glycine max) var. Adelphia; assay: Increasing flowering of plants (soybeans); type: in vivo, soybean (Glycine max); settings: three weeks after spraying
Description: In the following tests seedling soybean plants growing in plastic cups are sprayed with aqueous-acetone solutions or dispersions of test compounds when they have reached the 2nd to 3rd trifoliate stage. Test solutions or dispersions are prepared with 0.25 v/v Colloidal BIOFILM® surfactant and sufficient test compound to provide the plants with 0.5, 0.25, 0.125 or 0.06 kg/ha of said compound when the test solutions are sprayed on said plants from an overhead sprayer delivering 747 l/ha of solution.
After spraying the plants are placed on greenhouse benches and watered and fertilized. Three weeks after spraying the plants are examined and the amount of flowering determined for all plants. Data obtained are reported in the table below as percent increase in flowering over untreated controls.
From the data reported in Table VIII below it can be seen that the compounds of the present invention applied at rates of from 0.06 to 0.25 kg/ha enhance flowering of treated plant more than 10% over untreated controls. This response is particularly desirable for treatment of flowering varieties of ornamental plants as well as agronomic crops.

[4] = tested on: soybean (Glycine max) Adelphia; assay: Dwarfing and stem stiffening of soybeans (plant height, greenhouse, foliar spray); type: in vivo; settings: three weeks after spraying
Description: as §1, §2, §3, §4, §5

[5] = rate 0.125 kg/ha, listed as Methylamine salt with 2,4,6-tribromo-N--aci-nitroaniline
[6] = rate 0.125 kg/ha, potassium salt
[7] = rate 0.25 kg/ha, potassium salt

O=[N+]([O-])Nc1c(Br)cc(Br)cc1Br [2,4,6-Tribromo-N--nitroaniline tetrabutyl, ammonium salt]
% Reduction in Plant Height over untreated controls ([1]; rate 0.17 kg/ha, ammonium salt): 10.5% | % Reduction in Plant Height over untreated controls ([1]; rate 1.5 kg/ha, ammonium salt): 15.8%

O=[N+]([O-])Nc1c(Br)cc(Br)cc1Br [2,4,6-Tribromo-N--nitroaniline with dibenzylamine]
% Increase in Plant Canopy over untreated controls ([2]; rate 0.125 kg/ha): normal | % Increase in axillary branching over untreated controls ([2]; rate 0.125 kg/ha): normal | % Increase in axillary branching over untreated controls ([2]; rate 0.25 kg/ha): normal | % Increase in Flowering over untreated controls ([3]; rate 0.125 kg/ha): normal

O=[N+]([O-])Nc1c(Br)cc(Br)cc1Br [1,1-Dimethylpiperidinium salt with 2,4,6-tribromo-N--aci-nit] [1,1-Dimethylpiperidinium salt with 2,4,6-tribromo-N--aci-nitroaniline]
% Reduction in Plant Height over untreated controls ([4]; rate 0.125 kg/ha): > 25% | % Reduction in Plant Height over untreated controls ([4]; rate 0.25 kg/ha): > 35% | % Reduction in Plant Height over untreated controls ([4]; rate 0.5 kg/ha): > 50% | % Increase in Plant Canopy over untreated controls ([2]; rate 0.125 kg/ha): normal | % Increase in axillary branching over untreated controls ([2]; rate 0.125 kg/ha): normal | % Increase in axillary branching over untreated controls ([2]; rate 0.25 kg/ha): normal | % Increase in Flowering over untreated controls ([3]; rate 0.125 kg/ha): normal

O=[N+]([O-])Nc1c(Br)cc(Br)cc1Br [2,4,6-Tribromo-N--nitroaniline with dodecylamine]
% Increase in Plant Canopy over untreated controls ([2]; rate 0.125 kg/ha): normal | % Increase in axillary branching over untreated controls ([2]; rate 0.125 kg/ha): normal | % Increase in Flowering over untreated controls ([3]; rate 0.125 kg/ha): normal

Cn1c(-c2ccccc2)cc(-c2ccccc2)[n+]1C.O=[N+]([O-])[N-]c1c(Br)cc(Br)cc1I [1,2-Dimethyl-3,5-diphenylpyrazolium salt with 2,4-dibromo-6-iodo-N--aci-nitroaniline]
% Reduction in Plant Height over untreated controls ([4]; rate 0.125 kg/ha): > 10% | % Reduction in Plant Height over untreated controls ([4]; rate 0.25 kg/ha): > 15% | % Reduction in Plant Height over untreated controls ([4]; rate 0.5 kg/ha): > 25% | % Increase in Flowering over untreated controls ([3]; rate 0.5 kg/ha): normal

O=[N+]([O-])Nc1c(Br)cc(Br)cc1Br [Methyltriphenyl phosphonium salt with 2,4,6-tribromo-N--aci-] [Methyltriphenyl phosphonium salt with 2,4,6-tribromo-N--aci-nitroaniline]
% Reduction in Plant Height over untreated controls ([4]; rate 0.125 kg/ha): > 25% | % Reduction in Plant Height over untreated controls ([4]; rate 0.25 kg/ha): > 35% | % Reduction in Plant Height over untreated controls ([4]; rate 0.5 kg/ha): > 50% | % Increase in Plant Canopy over untreated controls ([2]; rate 0.125 kg/ha): normal | % Increase in axillary branching over untreated controls ([2]; rate 0.125 kg/ha): normal | % Increase in axillary branching over untreated controls ([2]; rate 0.25 kg/ha): normal | % Increase in Flowering over untreated controls ([3]; rate 0.125 kg/ha): normal

O=[N+]([O-])Nc1c(Br)cc(Br)cc1Br [2,4,6-Tribromo-N--nitroaniline with ammonia (1:1)]
% Reduction in Plant Height over untreated controls ([1]; rate 0.50 kg/ha): 16.3% | % Reduction in Plant Height over untreated controls ([1]; rate 1.5 kg/ha): 15.3% | % Reduction in Plant Height over untreated controls ([4]; rate 0.5 kg/ha): > 60% | % Reduction in Plant Height over untreated controls ([4]; rate 2.0 kg/ha): > 60% | % Increase in Plant Canopy over untreated controls ([2]; rate 0.5 kg/ha): Injury

O=[N+]([O-])Nc1c(Br)cc(Br)cc1Br [2,4,6-Tribromo-N--nitroaniline, sodium salt]
% Reduction in Plant Height over untreated controls ([1]; rate 0.17 kg/ha, sodium salt): 6.2% | % Reduction in Plant Height over untreated controls ([1]; rate 0.50 kg/ha, sodium salt): 13.0% | % Reduction in Plant Height over untreated controls ([1]; rate 1.5 kg/ha, sodium salt): 13.0% | % Reduction in Plant Height over untreated controls ([4]; rate 0.125 kg/ha, sodium salt): > 35% | % Reduction in Plant Height over untreated controls ([4]; rate 0.25 kg/ha, sodium salt): > 40% | % Increase in Flowering over untreated controls ([3]; rate 0.5 kg/ha, sodium salt): normal

O=[N+]([O-])Nc1c(Br)cc(Br)cc1Br [2,4,6-Tribromo-N--nitroaniline with methylamine (1:1)]
% Reduction in Plant Height over untreated controls ([1]; rate 0.11 kg/ha): 10% | % Reduction in Plant Height over untreated controls ([1]; rate 0.56 kg/ha): > 50% | % Reduction in Plant Height over untreated controls ([1]; rate 2.24 kg/ha): > 50% | % Reduction in Plant Height over untreated controls ([4]; rate 0.5 kg/ha): > 60% | % Reduction in Plant Height over untreated controls ([4]; rate 2.0 kg/ha): > 60% | % Increase in Plant Canopy over untreated controls [2, 5]: normal | % Increase in axillary branching over untreated controls [2, 5]: normal | % Increase in axillary branching over untreated controls ([2]; rate 0.25 kg/ha, listed as Methylamine salt with 2,4,6-tribromo-N--aci-nitroaniline): normal | % Increase in axillary branching over untreated controls ([2]; rate 0.5 kg/ha, listed as Methylamine salt with 2,4,6-tribromo-N--aci-nitroaniline): normal

O=[N+]([O-])Nc1c(Br)cc(Br)cc1Br [2,4,6-Tribromo-N--nitroaniline with octylamine (1:1)]
% Reduction in Plant Height over untreated controls ([1]; rate 0.17 kg/ha): 10.5% | % Reduction in Plant Height over untreated controls ([1]; rate 0.50 kg/ha): 13.0% | % Reduction in Plant Height over untreated controls ([1]; rate 1.5 kg/ha): 11.1% | % Increase in axillary branching over untreated controls ([2]; rate 0.125 kg/ha, octylamine salt): normal | % Increase in Plant Canopy over untreated controls ([2]; rate 0.5 kg/ha, octylamine salt): slight reduction

O=[N+]([O-])Nc1c(Br)cc(Br)cc1Br [2,4,6-Tribromo-N--nitroaniline, potassium salt]
% Reduction in Plant Height over untreated controls ([1]; rate 0.17 kg/ha, potassium salt): 2.7% | % Reduction in Plant Height over untreated controls ([1]; rate 0.50 kg/ha, potassium salt): 11.8% | % Reduction in Plant Height over untreated controls ([1]; rate 1.5 kg/ha, potassium salt): 2.0% | % Reduction in Plant Height over untreated controls [4, 6]: > 5% | % Reduction in Plant Height over untreated controls [4, 7]: > 5% | % Reduction in Plant Height over untreated controls ([4]; rate 0.5 kg/ha, potassium salt): > 30% | % Increase in axillary branching over untreated controls [2, 6]: normal | % Increase in axillary branching over untreated controls [2, 7]: normal | % Increase in Plant Canopy over untreated controls ([2]; rate 0.5 kg/ha, potassium salt): normal | % Increase in Flowering over untreated controls ([3]; rate 0.5 kg/ha, potassium salt): normal
